# Reference: ChEMBL document CHEMBL3885881, “DrugMatrix”
# Species: Rattus norvegicus
# Test: DrugMatrix - Regimen: Daily Repeat
# Format: toxicity, organism-based, Sprague-Dawley
# Design: regimen Daily Repeat, gender Male, age 6-8 weeks
# Conditions: in vivo, po, route oral GAVAGE, vehicle .5 % CMC; for TOTAL PROTEIN / ALANINE AMINOTRANSFERASE / ALBUMIN / ALKALINE PHOSPHATASE / ASPARTATE AMINOTRANSFERASE / CARBON DIOXIDE / CHLORIDE / CHOLESTEROL / CREATINE PHOSPHOKINASE / CREATININE / GLUCOSE / LACTATE DEHYDROGENASE / LIPASE / PHOSPHORUS / POTASSIUM / SODIUM / TOTAL BILIRUBIN / BLOOD UREA NITROGEN: tissue Plasma; for ABSOLUTE BASOPHIL / ABSOLUTE EOSINOPHIL / ABSOLUTE LYMPHOCYTE / ABSOLUTE MONOCYTE / ABSOLUTE SEGMENTED NEUTROPHIL / BASOPHIL / EOSINOPHIL / ERYTHROCYTE COUNT / HEMATOCRIT / HEMOGLOBIN / LEUKOCYTE COUNT / LYMPHOCYTE / MEAN CORPUSCULAR HEMOGLOBIN / MEAN CORPUSCULAR HEMOGLOBIN CONCENTRATION / MEAN CORPUSCULAR VOLUME / MONOCYTE / NEUTROPHIL / NUCLEATED RED BLOOD CELLS / PLATELET COUNT: tissue Blood
# [1] = 25 mg/kg, 120 h, dose level Low, time 5 day
# [2] = 1500 mg/kg, 72 h, dose level High, time 3 day
# [3] = 1500 mg/kg, 120 h, dose level High, time 5 day
compound,measurement,setting,value
COc1cc(/C=C/C(=O)O)ccc1O [FERULATE],TOTAL PROTEIN,"25 mg/kg, 72 h, dose level Low, time 3 day",5.97 G/DL
same,ABSOLUTE BASOPHIL,[1],0 CELLS/uL
same,ABSOLUTE EOSINOPHIL,[1],170 CELLS/uL
same,ABSOLUTE LYMPHOCYTE,[1],14805 CELLS/uL
same,ABSOLUTE MONOCYTE,[1],286 CELLS/uL
same,ABSOLUTE SEGMENTED NEUTROPHIL,[1],1439 CELLS/uL
same,BASOPHIL,[1],0%
same,EOSINOPHIL,[1],1.33%
same,ERYTHROCYTE COUNT,[1],5.63 x10E6/uL
same,HEMATOCRIT,[1],35.7%
same,HEMOGLOBIN,[1],13.7 G/DL
same,LEUKOCYTE COUNT,[1],16.7 x10E3/uL
same,LYMPHOCYTE,[1],87.67%
same,MEAN CORPUSCULAR HEMOGLOBIN,[1],24.43 pg
same,MEAN CORPUSCULAR HEMOGLOBIN CONCENTRATION,[1],38.37 G/DL
same,MEAN CORPUSCULAR VOLUME,[1],63.63 fL
same,MONOCYTE,[1],1.67%
same,NEUTROPHIL,[1],9.33%
same,NUCLEATED RED BLOOD CELLS,[1],0.33 /100WBC
same,PLATELET COUNT,[1],1379.67 x10E3/uL
same,ALANINE AMINOTRANSFERASE,[1],52.67 u/L
same,ALBUMIN,[1],4.27 G/DL
same,ALKALINE PHOSPHATASE,[1],350.33 u/L
same,ASPARTATE AMINOTRANSFERASE,[1],91.33 u/L
same,CARBON DIOXIDE,[1],28 mmol/L
same,CHLORIDE,[1],104.67 MEQ/L
same,CHOLESTEROL,[1],79.67 mg/dL
same,CREATINE PHOSPHOKINASE,[1],317 u/L
same,CREATININE,[1],0.18 mg/dL
same,GLUCOSE,[1],160.67 mg/dL
same,LACTATE DEHYDROGENASE,[1],421.67 u/L
same,LIPASE,[1],9.33 u/L
same,PHOSPHORUS,[1],12.9 mg/dL
same,POTASSIUM,[1],6.65 MEQ/L
same,SODIUM,[1],144.87 MEQ/L
same,TOTAL BILIRUBIN,[1],0.17 mg/dL
same,TOTAL PROTEIN,[1],5.93 G/DL
same,ABSOLUTE BASOPHIL,[2],0 CELLS/uL
same,ABSOLUTE EOSINOPHIL,[2],42 CELLS/uL
same,ABSOLUTE LYMPHOCYTE,[2],12584.67 CELLS/uL
same,ABSOLUTE MONOCYTE,[2],382 CELLS/uL
same,ABSOLUTE SEGMENTED NEUTROPHIL,[2],1124.67 CELLS/uL
same,BASOPHIL,[2],0%
same,EOSINOPHIL,[2],0.33%
same,ERYTHROCYTE COUNT,[2],5.75 x10E6/uL
same,HEMATOCRIT,[2],35.2%
same,HEMOGLOBIN,[2],13.03 G/DL
same,LEUKOCYTE COUNT,[2],14.13 x10E3/uL
same,LYMPHOCYTE,[2],89%
same,MEAN CORPUSCULAR HEMOGLOBIN,[2],22.7 pg
same,MEAN CORPUSCULAR HEMOGLOBIN CONCENTRATION,[2],37.03 G/DL
same,MEAN CORPUSCULAR VOLUME,[2],61.23 fL
same,MONOCYTE,[2],2.67%
same,NEUTROPHIL,[2],8%
same,NUCLEATED RED BLOOD CELLS,[2],0.33 /100WBC
same,PLATELET COUNT,[2],1425.67 x10E3/uL
same,ALANINE AMINOTRANSFERASE,[2],67.67 u/L
same,ALBUMIN,[2],4.13 G/DL
same,ALKALINE PHOSPHATASE,[2],355 u/L
same,ASPARTATE AMINOTRANSFERASE,[2],102.67 u/L
same,BLOOD UREA NITROGEN,[2],13.67 mg/dL
same,CARBON DIOXIDE,[2],25.67 mmol/L
same,CHLORIDE,[2],103.33 MEQ/L
same,CHOLESTEROL,[2],81.67 mg/dL
same,CREATINE PHOSPHOKINASE,[2],489 u/L
same,CREATININE,[2],0.15 mg/dL
same,GLUCOSE,[2],140.67 mg/dL
same,LACTATE DEHYDROGENASE,[2],475.67 u/L
same,LIPASE,[2],10 u/L
same,PHOSPHORUS,[2],10.73 mg/dL
same,POTASSIUM,[2],6.23 MEQ/L
same,SODIUM,[2],143.87 MEQ/L
same,TOTAL BILIRUBIN,[2],0.2 mg/dL
same,TOTAL PROTEIN,[2],5.5 G/DL
same,ABSOLUTE BASOPHIL,[3],0 CELLS/uL
same,ABSOLUTE EOSINOPHIL,[3],97 CELLS/uL
same,ABSOLUTE LYMPHOCYTE,[3],18780.67 CELLS/uL
same,ABSOLUTE MONOCYTE,[3],55.33 CELLS/uL
same,ABSOLUTE SEGMENTED NEUTROPHIL,[3],967 CELLS/uL
same,BASOPHIL,[3],0%
same,EOSINOPHIL,[3],0.33%
same,ERYTHROCYTE COUNT,[3],6.33 x10E6/uL
same,HEMATOCRIT,[3],38.23%
same,HEMOGLOBIN,[3],14.4 G/DL
same,LEUKOCYTE COUNT,[3],19.9 x10E3/uL
same,LYMPHOCYTE,[3],94%
same,MEAN CORPUSCULAR HEMOGLOBIN,[3],22.73 pg
same,MEAN CORPUSCULAR HEMOGLOBIN CONCENTRATION,[3],37.67 G/DL
same,MEAN CORPUSCULAR VOLUME,[3],60.37 fL
same,MONOCYTE,[3],0.33%
same,NEUTROPHIL,[3],5.33%
same,NUCLEATED RED BLOOD CELLS,[3],0.33 /100WBC
same,PLATELET COUNT,[3],1095 x10E3/uL
same,ALANINE AMINOTRANSFERASE,[3],64.33 u/L
same,ALBUMIN,[3],4.57 G/DL
same,ALKALINE PHOSPHATASE,[3],399 u/L
same,ASPARTATE AMINOTRANSFERASE,[3],93.67 u/L
same,BLOOD UREA NITROGEN,[3],16.33 mg/dL
same,CARBON DIOXIDE,[3],26 mmol/L
same,CHLORIDE,[3],107 MEQ/L
same,CHOLESTEROL,[3],64.67 mg/dL
same,CREATINE PHOSPHOKINASE,[3],723.33 u/L
same,CREATININE,[3],0.21 mg/dL
same,GLUCOSE,[3],164.33 mg/dL
same,LACTATE DEHYDROGENASE,[3],166.67 u/L
same,LIPASE,[3],9.67 u/L
same,PHOSPHORUS,[3],11.4 mg/dL
same,POTASSIUM,[3],6.41 MEQ/L
same,SODIUM,[3],146.6 MEQ/L
same,TOTAL BILIRUBIN,[3],0.2 mg/dL
same,TOTAL PROTEIN,[3],6.17 G/DL
